According to DBAASP:
Values after ≈ are worked out from the molar mass of the structure shown. Values joined by “and” are separate entries in the source; they are usually repeats but may differ in a detail not shown here. Equal entries are not always repeated.

Columns and labels:
Assay in all cases: ≥ marks a high value that may be exact or a test limit, other limits are often not marked, values filed in µg/mL are converted to µM
[1] = tested on: Salmonella enterica subsp. enterica serovar Typhimurium ATCC 14028
[2] = tested on: Staphylococcus epidermidis ATCC 12228
Escherichia coli ML-35 = tested on: Escherichia coli ML-35
[3] = tested on: Serratia marcescens ATCC 8100
Escherichia coli D21 = tested on: Escherichia coli D21
Bacillus megaterium Bm11 = tested on: Bacillus megaterium Bm11
[4] = tested on: Staphylococcus aureus ATCC 25923
[5] = tested on: Pseudomonas aeruginosa ATCC 27853
[6] = tested on: Escherichia coli ATCC 25922
[7] = tested on: Listeria monocytogenes EGD
Staphylococcus aureus = tested on: Staphylococcus aureus
Streptococcus sanguinis = tested on: Streptococcus sanguinis
[8] = tested on: Candida albicans JLC 30364
[9] = tested on: Bacillus subtilis ATCC 6633
[10] = tested on: Enterococcus faecium CMCC 1.2136
[11] = tested on: Listeria ivanovii ATCC 19119
[12] = tested on: Staphylococcus aureus ATCC 43300
[13] = tested on: Escherichia coli CVCC 1515
[14] = tested on: Streptococcus suis CVCC 606
[15] = tested on: Salmonella enterica subsp. enterica serovar Choleraesuis CVCC 503
[16] = tested on: Pseudomonas aeruginosa CICC 10419
[17] = tested on: Salmonella enterica subsp. enterica serovar Pullorum CVCC 1802
[18] = tested on: Salmonella enterica subsp. enterica serovar Pullorum CVCC 1789
[19] = tested on: Candida albicans CGMCC 2.2411
[20] = tested on: Pseudomonas aeruginosa CICC 21630
[21] = tested on: Salmonella enterica subsp. enterica serovar Enteritidis CVCC 3377
[22] = tested on: Escherichia coli CVCC 195
[23] = tested on: Escherichia coli O157:H7 CICC 21530
[24] = tested on: Mycobacterium tuberculosis
Streptococcus agalactiae = tested on: Streptococcus agalactiae
[25] = tested on: Pseudomonas aeruginosa DFU3
Shigella flexneri = tested on: Shigella flexneri
[26] = tested on: Staphylococcus aureus ATCC 29213
[27] = tested on: Escherichia coli ATCC 11775
[28] = tested on: Bacillus subtilis ATCC 6051
[29] = tested on: Candida albicans ATCC 18804
[30] = tested on: Listeria monocytogenes ATCC 7644
[31] = tested on: Staphylococcus aureus IAM 1098
[32] = tested on: Enterococcus faecalis ATCC 19433
[33] = tested on: Pseudomonas aeruginosa ATCC 10145
[34] = tested on: Mycobacterium tuberculosis H37Rv
[35] = tested on: Salmonella enterica subsp. enterica serovar Typhi ATCC 6399
[36] = tested on: Staphylococcus epidermidis SAM 0020

NC(N)=NCCC[C@H](NC(=O)[C@@H](N)CCCN=C(N)N)C(=O)N[C@@H](CCCN=C(N)N)C(=O)N1CCC[C@H]1C(=O)N[C@@H](CCCN=C(N)N)C(=O)N1CCC[C@H]1C(=O)N1CCC[C@H]1C(=O)N[C@@H](Cc1ccc(O)cc1)C(=O)N[C@@H](Cc1c[nH]c2ccccc12)C(=O)N1CCC[C@H]1C(=O)N[C@@H](CCCN=C(N)N)C(=O)N1CCC[C@H]1C(=O)N[C@@H](CCCN=C(N)N)C(=O)N1CCC[C@H]1C(=O)N1CCC[C@H]1C(=O)O [RRRPRPPYWPRPRPP]
MIC [1]: 16 µM (≈ 31.7 µg/mL) | MIC [2]: > 64 µM | MIC (Escherichia coli ML-35): 4 µM (≈ 7.94 µg/mL) | MIC [3]: 8 µM (≈ 15.9 µg/mL) | MIC (Escherichia coli D21): 2 µM (≈ 3.97 µg/mL) | MIC (Bacillus megaterium Bm11): 16 µM (≈ 31.7 µg/mL)

CC[C@H](C)[C@H](NC(=O)[C@H](C)NC(=O)[C@H](CCCN=C(N)N)NC(=O)[C@H](CCCCN)NC(=O)[C@H](C)NC(=O)[C@H](CCC(N)=O)NC(=O)[C@H](CC(C)C)NC(=O)[C@H](CCCCN)NC(=O)[C@H](Cc1ccccc1)NC(=O)[C@H](CC(C)C)NC(=O)[C@H](CCCCN)NC(=O)[C@H](Cc1ccccc1)NC(=O)[C@@H](NC(=O)[C@@H](NC(=O)[C@H](CCCCN)NC(=O)[C@H](C)NC(=O)[C@H](C)NC(=O)[C@@H](N)CCCCN)[C@@H](C)O)C(C)C)C(=O)N[C@@H](CCC(=O)O)C(=O)N[C@@H](C)C(N)=O [KAAKTVFKLFKLQAKRAIEA]
MIC [4]: 128 µM (≈ 289 µg/mL) | MIC [5]: 128 µM (≈ 289 µg/mL) | MIC [6]: 128 µM (≈ 289 µg/mL) | MIC [7]: ≥ 128 µM

NC(=O)[C@H](Cc1ccccc1)NC(=O)[C@H](Cc1ccccc1)NC(=O)[C@@H](N)Cc1ccccc1 [FFF]
MIC (Staphylococcus aureus): > 1090 µM | MIC (Streptococcus sanguinis): ≥ 1090 µM

CC(=O)N[C@@H](Cc1ccccc1)C(=O)N[C@@H](CCCCN)C(=O)N[C@@H](CCCCN)C(=O)N[C@@H](CC(C)C)C(=O)N[C@@H](CCCCN)C(=O)N[C@@H](CCCCN)C(=O)N[C@@H](CC(C)C)C(=O)N[C@@H](Cc1ccccc1)C(=O)N[C@@H](CO)C(=O)N[C@@H](CCCCN)C(=O)N[C@@H](CC(C)C)C(=O)N[C@@H](Cc1c[nH]c2ccccc12)C(=O)N[C@@H](CC(N)=O)C(=O)N[C@@H](Cc1c[nH]c2ccccc12)C(=O)N[C@@H](CCCCN)C(N)=O [FKKLKKLFSKLWNWK]
MIC [8]: ≥ 32 µM | MIC [9]: 1.6 µM and 4 µM

CC(C)[C@H](NC(=O)CNC(=O)[C@H](CC(N)=O)NC(=O)[C@H](CCCN=C(N)N)NC(=O)[C@H](Cc1ccc(O)cc1)NC(=O)[C@@H](NC(=O)[C@@H](NC(=O)[C@H](CC(N)=O)NC(=O)[C@H](Cc1c[nH]c2ccccc12)NC(=O)[C@H](Cc1ccccc1)NC(=O)CN)C(C)C)C(C)C)C(=O)N[C@@H](CCCN=C(N)N)C(=O)N[C@H](C(=O)N[C@@H](Cc1cnc[nH]1)C(=O)N[C@@H](CCCN=C(N)N)C(=O)N[C@@H](CCCN=C(N)N)C(=O)N[C@@H](CC(N)=O)C(=O)O)C(C)C [GFWNVVYRNGVRVHRRN]
MIC [10]: 30.1 µM (≈ 64 µg/mL) | MIC [11]: ≥ 60.1 µM | MIC [4]: 0.939 µM (≈ 2 µg/mL) | MIC [12]: > 60.1 µM | MIC [1]: 60.1 µM (≈ 128 µg/mL) | MIC [13]: ≥ 60.1 µM | MIC [14]: ≥ 60.1 µM | MIC [15]: ≥ 60.1 µM | MIC [16]: ≥ 60.1 µM | MIC [17]: ≥ 60.1 µM | MIC [18]: ≥ 60.1 µM | MIC [19]: ≥ 60.1 µM | MIC [20]: ≥ 60.1 µM | MIC [21]: 1.88 µM (≈ 4 µg/mL) | MIC [9]: 30.1 µM (≈ 64 µg/mL) | MIC [22]: 30.1 µM (≈ 64 µg/mL) | MIC [23]: 30.1 µM (≈ 64 µg/mL)

CC[C@H](C)[C@H](NC(=O)[C@H](CC(C)C)NC(=O)[C@H](CCCCN)NC(=O)[C@H](CC(C)C)NC(=O)[C@H](C)NC(=O)CNC(=O)[C@H](CCCCN)NC(=O)[C@H](C)NC(=O)[C@H](CC(C)C)NC(=O)[C@H](C)NC(=O)CNC(=O)[C@H](Cc1c[nH]c2ccccc12)NC(=O)[C@@H](N)Cc1ccccc1)C(=O)N1CCC[C@H]1C(=O)N[C@@H](CO)C(=O)N[C@@H](CC(C)C)C(=O)N[C@@H](Cc1ccccc1)C(=O)N[C@@H](CO)C(=O)N[C@@H](CO)C(=O)N[C@@H](Cc1ccccc1)C(=O)N[C@@H](CO)C(=O)N[C@@H](CCCCN)C(=O)N[C@@H](CCCCN)C(=O)N[C@@H](CC(=O)O)C(=O)O [FWGALAKGALKLIPSLFSSFSKKD]
MIC [24]: ≥ 33.1 µM | MIC (Streptococcus agalactiae): 18.8 µM (≈ 49.1 µg/mL) | MIC [25]: 18.8 µM and 25 µM | MIC (Shigella flexneri): ≥ 37.5 µM | MIC [26]: 6.2 µM and > 3.1 µM | MIC [27]: 19.1 µM (≈ 49.9 µg/mL) | MIC [28]: 4.8 µM (≈ 12.5 µg/mL) | MIC [29]: 19.1 µM (≈ 49.9 µg/mL) | MIC [30]: 18.8 µM (≈ 49.1 µg/mL) | MIC [31]: 2.4 µM (≈ 6.27 µg/mL) | MIC [32]: 2.4 µM (≈ 6.27 µg/mL) | MIC [33]: ≥ 38.2 µM | MIC [34]: 22.1 µM (≈ 57.7 µg/mL) | MIC [35]: ≥ 37.5 µM | MIC [36]: 4.8 µM (≈ 12.5 µg/mL) | MIC [9]: ≥ 37.5 µM
